# Key:
# Test in all cases: Pre-emergence soil-applied mixtures, greenhouse
# [1] = system: SETFA (Setaria faberi, giant foxtail); type: in vivo, Setaria faberi Herrm.; conditions: Diuron 280 g ai/ha; 29 DAA
# Source text: (§1) Seeds or nutlets of the desired test plant species were planted in a soil matrix prepared by mixing a loam soil (32 percent silt, 23 percent clay, and 45 percent sand, with a pH of about 6.5 and an organic matter content of about 1.9 percent) and calcareous grit in an 80 to 20 ratio. The soil matrix was contained in plastic pots with a volume of 1 quart and a surface area of 83.6 square centimeters (cm^2).
# (§2) Treatments consisted of the benzyl ester of 4-amino-3-chloro-5-fluoro-6-(4-chloro-2-fluoro-3-methoxy-phenyl)pyridine-2-carboxylic acid (compound A) formulated as an SC (suspension concentrate) and various herbicidal components alone and in combination. Forms of compound A were applied on an acid equivalent basis.
# (§3) Other herbicidal components were applied on an acid equivalent or active ingredient basis and included the PSII-inhibiting herbicides, atrazine formulated as Atrazine® 90WDG, metribuzin formulated as Metribuzin 75DF, simazine formulated as Princep Caliber 90, tebuthiuron formulated as Spike 80DF, cyanazine (technical grade material), hexazinone (technical grade material), linuron (technical grade material), terbuthylazine (technical grade material), and diuron formulated as Diuron 4L.
# (§4) Treatment requirements were calculated based upon the rates being tested, the concentration of active ingredient or acid equivalent in the formulation, and a 12 mL application volume at a rate of 187 L/ha.
# (§5) For treatments comprised of formulated compounds, measured amounts of compounds were placed individually in 25 mL glass vials and diluted in a volume of 1.25% (v/v) Agri-Dex® crop oil concentrate (COC) to obtain 12× stock solutions. […] Application solutions were prepared by adding an appropriate amount of each stock solution (e.g., 1 mL) and diluted to the appropriate final concentrations with the addition of 10 mL of an aqueous mixture of 1.25% (v/v) COC so that the final spray solutions contained 1.25% (v/v) COC.
# (§6) For treatments comprised of technical compounds, weighed amounts can be placed individually in 25 mL glass vials and dissolved in a volume of 97:3 (v/v) acetone/DMSO to obtain 12× stock solutions. […] Application solutions can be prepared by adding an appropriate amount of each stock solution (e.g., 1 mL) and diluted to the appropriate final concentrations with the addition of 10 mL of an aqueous mixture of 1.5% (v/v) COC so that the final spray solutions contain 1.25% (v/v) COC. When technical materials are used, the concentrated stock solutions can be added to the spray solutions so that the final acetone and DMSO concentrations of the application solutions are 16.2% and 0.5%, respectively.
# (§7) For treatments comprised of formulated and technical compounds, weighed amounts of the technical materials can be placed individually in 25 mL glass vials and dissolved in a volume of 97:3 (v/v) acetone/DMSO to obtain 12× stock solutions, and measured amounts of the formulated compounds can be placed individually in 25 mL glass vials and diluted in a volume of 1.5% (v/v) COC or water to obtain 12× stock solutions. […] Application solutions can be prepared by adding an appropriate amount of each stock solution (e.g., 1 mL) and diluted to the appropriate final concentrations with the addition of an appropriate amount of an aqueous mixture of 1.5% (v/v) COC so that the final spray solutions contain 1.25% (v/v) COC. As required, additional water and/or 97:3 (v/v) acetone/DMSO can be added to individual application solutions so that the final acetone and DMSO concentrations of the application solutions being compared are 8.1% and 0.25%, respectively.
# (§8) All stock solutions and applications solutions were visually inspected for compound compatibility prior to application. Spray solutions were applied to the soil with an overhead Mandel track sprayer equipped with a 8002E nozzles calibrated to deliver 187 L/ha over an application area of 0.503 m^2 at a spray height of 18 inches (46 cm) above average pot height. […]
# [2] = system: BRAPP (Brachiaria platyphylla, broadleaf signalgrass); type: in vivo, Brachiaria platyphylla (Groseb.) Nash; conditions: 28 DAA
# Source text: as §1, §2, §3, §4, §5, §6, §7, §8
# [3] = system: ABUTH (Abutilon theophrasti, velvetleaf); type: in vivo, Abutilon theophrasti Medik.
# Source text: as §1, §2, §3, §4, §5, §6
# as §7, with “As required, additional water and/or 97:3 (v/v) acetone/DMSO can be added to individual application solutions so that the final acetone and DMSO concentrations of the application solutions being compared are 8.1% and 0.25%, respectively.” left out
# [4] = system: ECHCG (Echinochloa crus-galli, barnyardgrass); type: in vivo, Echinochloa crus-galli (L.) P. Beauv.
# Source text: as §1, §2, §3, §4, §5
# For treatments comprised of technical compounds, weighed amounts can be placed individually in 25 mL glass vials and dissolved in a volume of 97:3 (v/v) acetone/DMSO to obtain 12× stock solutions. […]
# (§9) For treatments comprised of formulated and technical compounds, weighed amounts of the technical materials can be placed individually in 25 mL glass vials and dissolved in a volume of 97:3 (v/v) acetone/DMSO to obtain 12× stock solutions, and measured amounts of the formulated compounds can be placed individually in 25 mL glass vials and diluted in a volume of 1.5% (v/v) COC or water to obtain 12× stock solutions. […]
# [5] = system: ECHCO (Echinochloa colonum, junglerice); type: in vivo, Echinochloa colonum (L.) Link; conditions: Diuron 280 g ai/ha
# Source text: as §1, §2, §3, §4
# (§10) For treatments comprised of formulated compounds, measured amounts of compounds were placed individually in 25 mL glass vials and diluted in a volume of 1.25% (v/v) Agri-Dex® crop oil concentrate (COC) to obtain 12× stock solutions. […]
# as §9
# [6] = system: SETVI (Setaria viridis, green foxtail); type: in vivo, Setaria viridis (L.) Beauv.; conditions: Diuron 280 g ai/ha
# Source text: as §1, §2, §3, §4, §10, §9
smiles,measurement,setting,value
"CN(C)C(=O)Nc1ccc(Cl)c(Cl)c1 [Diuron, N′-(3,4-dichlorophenyl)-N,N-dimethylurea, reference compound]",Visual Weed Control (%)-29 DAA SETFA Obs,[1],5%
same,Visual Weed Control (%)-28 DAA BRAPP Obs,[2]; Diuron 280 g ai/ha,0%
same,Visual Weed Control (%)-28 DAA BRAPP Obs,[2]; Diuron 560 g ai/ha,35%
same,Visual Weed Control (%)-29 DAA ABUTH Obs,[3]; Diuron 280 g ai/ha,30%
same,Visual Weed Control (%)-29 DAA ABUTH Obs,[3]; Diuron 560 g ai/ha,70%
same,Visual Weed Control (%)-29 DAA ABUTH Obs,[3]; Diuron 1120 g ai/ha,90%
same,Visual Weed Control (%)-28 DAA ECHCG Obs,[4]; Diuron 280 g ai/ha,25%
same,Visual Weed Control (%)-28 DAA ECHCG Obs,[4]; Diuron 560 g ai/ha,65%
same,Visual Weed Control (%)-29 DAA ECHCO Obs,[5],15%
same,Visual Weed Control (%)-29 DAA SETVI Obs,[6],0%
